According to US20220324958A1, “ANTI-INFLAMMATORY PEPTIDES, PHARMACEUTICAL COMPOSITION CONTAINING SUCH PEPTIDES, AND USES THEREOF” (INSTITUTO BUTANTAN, priority 2019, published 2022):
No end group written: not given here.

Legend:
[1] = system: THP-1 cells differentiated into macrophages; assay: LPS-induced cytokine production in THP-1-derived macrophages (Multiplex); assay type: cell-based, human
Method: THP-1 cells differentiated into macrophages were induced with LPS (10 ng/mL) and, one hour later, treated with synthetic peptides at a concentration of 200 nM. Dexamethasone (10 μM), an inflammatory inhibitor, was used as a control. After 24 hours, the culture medium was collected to measure the IL-1β (A), IL-6 (B), TNF-α (C), and IL-10 cytokines using a Multiplex kit. * p<0.05 vs. LPS; ** p<0.01 vs. LPS; *** p<0.005 vs. LPS;
THP-1 cells differentiated into macrophages were induced with LPS (10 ng/mL) and, one hour later, treated with L4 or D3 peptide (0.05 μM, 0.2 μM, 1 μM, and 2 μM). After 24 hours, the culture medium was collected and TNF-alpha, IL-6, IL-23, and IL-8 were measured by Multiplex. (A) L4 peptide. (B) D3 peptide;
(§1) Macrophages were obtained from the differentiation of monocytes THP-1. Briefly, 1×10^7 cells were treated in the RPMI medium with 25 nM PMA for 48 hours followed by 24 hours of rest in medium without PMA. Subsequently, the cells were released and plated for the respective treatments.
The kit is based on Luminex® xMAP® technology that allows the simultaneous analysis of various cytokines. The technique is based on marked magnetic fluorescent spheres, known as MagPlex®-C microspheres. These microspheres are covered with capture antibodies specific for IL-6 […], and specifically capture the analyte in the supernatant. Each microsphere was individually identified and the results were analyzed using Luminex® Xponent® 4.2 acquisition software.
THP-1 cells differentiated into macrophages were induced with LPS (10 ng/mL) and, one hour later, treated with synthetic peptides, […] (inflammation inhibitor, 10 μM). After 24 hours, the culture medium was collected and IL-1β (A), IL-6 (B), TNF-α (C), and IL-10 were measured by Multiplex. * p<0.05 vs. LPS; ** p<0.01 vs. LPS; *** p<0.005 vs. LPS.
THP-1 cells differentiated into macrophages were induced with LPS (10 ng/mL) and, one hour after, treated with L4 (0.05 μM, 0.2 μM, 1 μM, and 2 μM). After 24 hours, the culture medium was collected and TNF-α, IL-6, IL-23, and IL-8 were measured by Multiplex. (A) L4 peptide. (B) D3 peptide.

[2] = system: neurons obtained from SHSY5Y cells; assay: Anti-nociceptive/anti-inflammatory model, neurons stimulated with IL-1β: substance P and β-endorphin in supernatant; assay type: cell-based
Method: ANOVA and Dunnet ** p<0.01, *** p<0.001 compared to IL-1β;
(§2) The differentiation process consists of 6 stages distributed over 7 days. On the first day of the differentiation protocol (day 0), cells were seeded in collagen-coated plates. On days 1, 3, and 4 the culture medium was removed, and the differentiation medium containing 2% fetal bovine serum (FBS) and retinoic acid (RA) 10 μM) was added. On day 5, the medium was removed and the culture was incubated with culture medium and brain-derived neurotrophic factor (BDNF) (50 ng/mL). On day 7 of the differentiation process, differentiated neurons are fully ready for use (Agholme et al., 2010, with some modifications).
(§3) 7×10^3 neurons/well were incubated with 10 μM of morphine (inhibitory response control) or peptides (200 nM and 500 nM) 3 hours before or 3 hours after incubation with IL-1β (10 ng/mL) or glycated collagen (GC) (100 μg/mL) (both positive controls for the release of substance P). After 24 hours of incubation, the cell viability assay and the detection of substance P and β-endorphin in the supernatant were performed. Multiplex with magnetic spheres (MILLIPLEX® MAP Magnetic Bead Panel)
ANOVA and Dunnet ** p<0.01, *** p<0.001 compared to […]

[3] = system: neurons obtained from SHSY5Y cells; assay: Anti-nociceptive/anti-inflammatory model, neurons stimulated with glycated collagen (GC): substance P and β-endorphin in supernatant; assay type: cell-based; settings: peptide 200 nM incubated 3 hours after GC (100 μg/mL)
Method: ANOVA and Dunnet * p<0.05; ** p<0.01 compared to glycated collagen (GC);
ANOVA and Dunnet * p<0.05 ** p<0.01, *** p<0.001 compared with GC;
as §2, §3
ANOVA and Dunnet * p<0.05; ** p<0.01 compared to GC.
ANOVA and Dunnet * p<0.05 ** p<0.01, *** p<0.001 compared to GC.

[4] = system: human chondrocytes (NHAC-kn); assay: Pro-inflammatory model of chondrocytes treated with IL-1β, cytokine release (Multiplex); assay type: cell-based; settings: chondrocytes treated with IL-1β (1 ng/mL)
Method: Values were obtained from each analyte in pg/mL from treatment with the peptides in the presence of IL-1β (1 ng/mL). The data are presented as the mean±MSE (* p<0.05 when compared to the control with IL-1β, test t, n=3).
(B) Chondrocytes were pretreated for 1 hour with IL-1β (1 ng/mL) before the addition of peptides (200 nM, 500 nM, and 1.25 μM) and an additional incubation of 24 hours before collecting the supernatants.
The primary human chondrocytes used in this assay were purchased from Lonza: Normal Human Articular Primary chondrocytes (NHAC-Kn, #CC-2550, Lot 8F3336). Chondrocyte cell culture was performed in bottles (Sarstedt T175 and T75). The cells were cultivated in DMEM culture medium (Sigma) supplemented with 10% fetal bovine serum (FBS) (Sigma), incubated in an oven at 37° C. and 5% CO2, and cultures were used in the sixth passage. The culture medium was changed every two days until the culture reached 80% confluence.
The identification and quantitative analysis of the cytokines present in the peptide treatment supernatant were performed using the Luminex xMAP Milliplex MAP Human Cytokine/Chemokine Magnetic Bead Panel Catalog #HCYTOMAG-60K technology, according to the manufacturer's instructions.
Values were obtained from each analyte in pg/mL from treatment with the peptides in the presence of IL-1β (1 ng/mL). The data are presented as the mean±MSE (*p<0.05 when compared to the control with IL-1β, test t, n=3).

[5] = system: macrophages derived from THP-1; assay: Cell viability (MTT) of macrophages derived from THP-1; assay type: cell-based, human
Method: as §1
The evaluation of metabolically active cells was performed using the colorimetric assay of [3-(4,5-dimethylthiazol-2-yl)-2,5-diphenyl tetrazolium] bromide (MTT, Sigma-Aldrich, St. Louis, USA), as previously reported (Twentyman et al., 1987). After each incubation period, the supernatant was removed and a MTT solution (0.5 mg/mL in phosphate-buffered saline—PBS) was added, and the cells incubated at 37° C. and 5% CO2 for 3 hours (Yang et al., 2012). After this period, the solution was removed and crystals of dark blue formazan were solubilized with 1 mL of dimethyl sulfoxide (DMSO, Merck, Darmstad) for 5 minutes. Quantification of formazan was done using an automatic ELISA microplate reader (SLT, Austria) at 570 nm.

[6] = LPS 10 ng/mL, peptide 200 nM one hour later, 24 hours, vs group treated only with LPS
[7] = dose-response 0.05, 0.2, 1 and 2 μM, LPS 10 ng/mL, 24 hours
[8] = peptide 200 nM added 3 hours after IL-1β (10 ng/mL)

Row | Sequence | levels of IL-10 (anti-inflammatory cytokine) ([1]; LPS 10 ng/mL, peptide 200 nM one hour later, 24 hours) | levels of IL-1β [1, 6] | levels of IL-6 [1, 6] | levels of TNF-a [1, 6] | best dose regarding IL-6 release [1, 7] | best dose regarding IL-8 release [1, 7] | most effective dose concerning IL-23 release [1, 7] | most effective dose concerning TNF-α release [1, 7] | production of inflammatory cytokines in response to LPS (dose-dependent) ([1]; dose-response 0.05-2 μM, TNF-α, IL-6, IL-23, IL-8) | production of Substance P [2, 8] | production of β-endorphin [2, 8] | production of substance P induced by IL-1β ([2]; peptide 200 nM added 3 hours before IL-1β (10 ng/mL)) | production of Substance P [3] | production of β-endorphin [3] | anti-inflammatory activity (release of G-CSF, GM-CSF, IL-6, IL-8, MCP-1, TNF-α) [4] | viability of macrophages derived from THP-1 [5]
1 | DYWHDGHDLN (Designated peptide based on the motif of a group of proteins called hemoline from lepidoptera acting as an anti-inflammatory molecule.) [D3] | reduced | significantly reducing | significantly reducing | significantly reducing | 1 µM | 1 µM | 1 µM | 1 µM | reduced | inhibit | induced | significantly inhibited | significantly inhibited | increased | anti-inflammatory activity | –
2 | YAIGYSCKDYK [P4, YAIGYSCKDYK] | – | – | – | – | – | – | – | – | – | – | – | – | – | – | – | no effect
